In patent US20230097293A1, “LMP1 TARGETING LANTHANIDE COMPLEXES AND METHODS OF USE THEREOF” (BP InnoMed Limited, priority 2021, published 2023):
Where a SMILES comes first, the peptide text is derived from it. [ ]: non-standard residue; d: D form. dPra = C#CC[C@@H](N)C(=O)O; Ahx = NCCCCCC(=O)O

Tests used:
Type in all cases: cell-based
NF-κB activity = assay: pTRE-EGFP reporter of NF-κB activity in LCL3 cells; details: LCL3, 6 hours
Description: (§1) We then investigate the inhibitory effects of our anti-LMP1 conjugates on the NF-κB pathway, which is one of the major pathways that EBV has hijacked for promoting cell growth and proliferation in EBV-associated tumours. Since NF-κB is typically activated by the canonical pathway which involves the nuclear translocation of the heterodimer of p50 and p65, immunofluorescence imaging of NF-κB p65 was then performed. Tumour necrosis factor alpha (TNFα) was added to these tumour cells, so as to activate the NF-κB pathway.
The antibodies including anti-LMP1 were purchased from Kerafast, while anti-NF-κB p65, anti-NF-κB p105/50, anti-histone H3, anti-GAPDH were purchased from Cell Signaling Technology. Anti-rabbit IgG HRP-linked, anti-mouse IgG HRP-linked, protease/phosphatase inhibitor cocktail were purchased from Cell Signaling Technology. Alexa Fluor 488-conjugated goat anti-mouse IgG, NucBlue fixed cell ready probes (DAPI), and ProLong gold antifade mountant with DAPI were purchased from Invitrogen. The transcriptional response element (TRE)-fluorescent protein reporter, pTRE-EGFP plasmid, was constructed as previously reported.
LCL3, AG876, AFB1 and C666-1 cells were grown in RPMI-1640 medium. HeLa cells were cultivated in DMEM medium and MRCS cells are cultivated in MEM medium (Gibco, USA). All media are supplemented with 10% fetal bovine serum and 1% penicillin/streptomycin antibiotics. […]

[1] = system: weakly LMP1-positive (C666-1) and LMP1-negative cell lines (HeLa, MRCS); assay: MTT cytotoxicity assay, weakly LMP1-positive or LMP1-negative cells
Description: (§2) To study the effects of the designed probes on cell survival, the MTT cytotoxicity assay was carried out in several highly LMP1-positive (LCL3, AFB1, AG876), weakly LMP1-positive (C666-1) and LMP1- negative cell lines (HeLa, MRCS), as shown in FIG. 9.
(§3) LCL3, AG876, AFB1 and C666-1 cells were grown in RPMI-1640 medium. HeLa cells were cultivated in DMEM medium and MRCS cells are cultivated in MEM medium (Gibco, USA). All media are supplemented with 10% fetal bovine serum and 1% penicillin/streptomycin antibiotics. All the cells are cultivated in a humidified incubator with 5% CO2 at 37° C. The pTRE-EGFP plasmid was transduced into LCL3 cells as previously mentioned.

NF-κB p65 and p50 = assay: Western blot of nuclear NF-κB p65 and p50; details: for nuclear p65 and p50 expression: LCL3 and AFB1, TNFα 10 ng/mL pre-treatment, compared with control
Description: Western blot analysis was also carried out to validate the above imaging results for the components in NF-κB pathway. The LMP1-overexpressing LCL3 and AFB1 cell lines were used for this analysis. […] After 24 hours incubation, the nuclear extracts were separated for each treatment, and the expression of NF-κB p65 and p50 was detected by Western blot analysis. […] Western blots of individual replicates for NF-κB p65 and p50 in different cell lines were illustrated in FIG. 14. […] The reduction in NF-κB activity can contribute to the cytotoxicity of the three compounds towards LMP1-overexpressing cells.
Cells with different treatments were harvested and washed with phosphate-buffered saline (PBS). Lysis buffer supplied by 1X proteases-phosphatase inhibitor were added into the cells for 5 min on ice. Then the samples were centrifuged at 14,000×g at 4° C. for 20 minutes. The fractionated cell lysates were subjected to SDS-PAGE gel and transferred onto PVDF membranes. Membranes were then blocked by 3% non-fat milk for 30 minutes at room temperature and incubated with specific primary antibodies at 4° C. overnight. They were then washed with TBST buffer and incubated with corresponding secondary antibodies for 1 h at room temperature. Then, the membranes were washed with TBST, and chemiluminescence substrate was added onto the membrane surface. ChemiDoc XRS system and Image Lab Software were used to visualize the blot.

NF-κB p65 = assay: Immunofluorescence imaging of NF-κB p65 after TNFα activation; details: for effect on p65 fluorescence signal: LCL3, 10 μM, 24 h, TNFα 10 ng/ml preincubation
Description: as §1
These assays were prepared and conducted at room temperature, unless otherwise stated. Cells with different treatment were fixed by formalin for 15 min. The samples were then washed with PBS and 0.2% Triton-X buffer was added onto the samples for 15 min. 3% BSA in PBS was served as the blocking buffer and applied onto the sample for 30 minutes at room temperature. The primary antibody was diluted in blocking buffer and added onto the sample at 4° C. overnight. The samples were washed with PBS and corresponding secondary antibodies were added over 1 h. Samples were washed with PBS and mountant was applied to each sample. Images were acquired either using a 370 nm laser excitation or from a 370 nm LED excitation of a Nikon Eclipse Ti2 Confocal Microscope. NIR images were captured by a NIRvana TE 640 camera. The signal enhancement of the C666-1 images were obtained by enhancing the exposure of the captured images by the NIS element AR software. Multiphoton microscopy was conducted by Leica TCS SP8 MP System.

[2] = MTT cytotoxicity assay, all selected cell lines; details: read-out: LC50 (the source's name)
Description: as §2, §3

Structure (SMILES) | GFP reporter signals (NF-κB activity) | cytotoxicity [1] | changes in expression of p65 and p50 (NF-κB p65 and p50; C666-1 and HeLa cells) | nuclear p65 and p50 expression (NF-κB p65 and p50) | effect on p65 fluorescence signal (NF-κB p65) | effect on NF-κB pathway (p65 fluorescence) (NF-κB p65; LMP1-negative HeLa and weak LMP1-expressing C666-1 cells) | CC50 [2]
C#CC[C@@H](N)C(=O)N[C@@H](CCCCN)C(=O)NCCCCCC(=O)N[C@@H](CCCCN)C(=O)N[C@@H](CC(C)C)C(=O)N[C@@H](CC(=O)O)C(=O)N[C@@H](CC(C)C)C(=O)N[C@@H](C)C(=O)N[C@@H](CC(C)C)C(=O)N[C@@H](CCCCN)C(=O)N[C@@H](Cc1ccccc1)C(=O)N[C@@H](Cc1c[nH]c2ccccc12)C(=O)N[C@@H](CC(C)C)C(=O)N[C@@H](Cc1ccc(O)cc1)C(=O)N[C@@H](CCCCN)C(=O)N[C@H](C(=O)N[C@H](C(=O)N[C@@H](CCSC)C(=O)N[C@@H](CO)C(=O)N[C@@H](CC(=O)O)C(=O)N[C@@H](CCCCN)C(=O)N[C@@H](Cc1c[nH]c2ccccc12)C(=O)N[C@@H](CCCCN)C(=O)N[C@@H](CCCNC(=N)N)C(=O)N[C@H](CCCNC(=N)N)C(=O)N[C@@H](CCCNC(=N)N)C(=O)N[C@@H](CCCCN)C(=O)O)C(C)C)[C@@H](C)CC [P19, Pra-KAhx-K-LDLALK-FWLY-K-IVMSDKW-K-RrRK] (H-[dPra]K[Ahx]KLDLALKFWLYKIVMSDKWKR[dR]RK-OH; N-terminus and C-terminus assumed) | decreased | relatively low | relatively minor | significantly weakened | significant suppression | did not exhibit any effect | 
C#CC[C@@H](N)C(=O)N[C@@H](CCCCN)C(=O)NCCCCCC(=O)N[C@@H](CCCCN)C(=O)N[C@@H](CC(C)C)C(=O)N[C@@H](CC(=O)O)C(=O)N[C@@H](CC(C)C)C(=O)N[C@@H](C)C(=O)N[C@@H](CC(C)C)C(=O)N[C@@H](CCCCN)C(=O)N[C@@H](C)C(=O)N[C@@H](C)C(=O)N[C@@H](C)C(=O)N[C@@H](C)C(=O)N[C@@H](CCCCN)C(=O)N[C@H](C(=O)N[C@H](C(=O)N[C@@H](CCSC)C(=O)N[C@@H](CO)C(=O)N[C@@H](CC(=O)O)C(=O)N[C@@H](CCCCN)C(=O)N[C@@H](Cc1c[nH]c2ccccc12)C(=O)N[C@@H](CCCCN)C(=O)N[C@@H](CCCNC(=N)N)C(=O)N[C@H](CCCNC(=N)N)C(=O)N[C@@H](CCCNC(=N)N)C(=O)N[C@@H](CCCCN)C(=O)O)C(C)C)[C@@H](C)CC [P19C, reference compound] (H-[dPra]K[Ahx]KLDLALKAAAAKIVMSDKWKR[dR]RK-OH; N-terminus and C-terminus assumed) |  |  |  | no obvious change | no significant effect |  | > 200 µM
